We go through 9 compounds from US5185331A, “Triazolobenzodiazepines” (Merck & Co., Inc., priority 1991, dated 1993).

Data set [1] addresses T1, CCK receptor (brain) (Cavia porcellus, UniProt H0VZC5).
T1 construct: Cerebral cortex was dissected and used as a receptor source; from tissue; host or cells: guinea pig cerebral cortex (male Hartley), washed membrane pellet of homogenate
As to the kind of experiment: 125I-CCK receptor binding (brain). Details: species or system guinea pig (male Hartley). The following applies: guinea pig cerebral cortex, 125I-CCK-33, 25° C., 2 hours. How it is done:
2. CCK Receptor Binding (Brain)
CCK-33 was radiolabeled and the binding was performed according to the description for the pancreas method with modification according to Saito et al. (J. Neurochem. 37, 483-490, 1981).
Male Hartley guinea pigs (300-500 g) were sacrificed by decapitation and the brains were removed and placed in ice-cold 50 mM, Tris HCl plus 7.58 g/l Trizma-7.4 (pH 7.4 at 25° C.). Cerebral cortex was dissected and used as a receptor source. Each gram of fresh guinea pig brain tissue was homogenized in 10 ml of Tris Trizma buffer with a Brinkman polytron PT-10. The homogenates were centrifuged at 42,000 g for 15 min. […] All assays were run in duplicate or triplicate. The reaction mixtures were incubated at 25° C. for 2 hours and centrifuged in a Beckman Microfuge (4 minutes) immediately after adding 1 ml of ice-cold incubation buffer. The supernatant was aspirated and discarded, pellets were counted with a Beckman gamma 5000.

For data set [2], the target named is T2, CCK receptor (pancreas) (Rattus norvegicus, UniProt P30551).
T2 construct: The whole pancreas was dissected free of fat tissue and was homogenized; from tissue; host or cells: rat pancreas (male Sprague-Dawley), washed membrane pellet of homogenate
T2 sequence (P30551 1-444): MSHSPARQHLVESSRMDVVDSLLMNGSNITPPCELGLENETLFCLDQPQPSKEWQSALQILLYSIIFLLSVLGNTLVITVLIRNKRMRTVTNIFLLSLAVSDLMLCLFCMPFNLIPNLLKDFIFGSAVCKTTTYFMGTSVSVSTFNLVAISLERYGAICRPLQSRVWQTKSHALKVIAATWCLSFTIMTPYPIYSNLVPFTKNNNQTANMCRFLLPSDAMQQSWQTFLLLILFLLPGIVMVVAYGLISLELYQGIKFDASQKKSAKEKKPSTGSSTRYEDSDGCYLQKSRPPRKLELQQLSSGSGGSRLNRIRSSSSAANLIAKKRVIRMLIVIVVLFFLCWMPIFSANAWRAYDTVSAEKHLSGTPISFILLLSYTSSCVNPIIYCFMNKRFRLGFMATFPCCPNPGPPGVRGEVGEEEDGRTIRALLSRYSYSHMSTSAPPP
As to the kind of experiment: 125I-CCK receptor binding (pancreas). Also on record: species or system rat (male Sprague-Dawley). As to conditions: for effect on the 125I-CCK receptor binding assay: added as protease inhibitor. How it is done:
1. CCK receptor binding (pancreas)
CCK-33 was radiolabeled with ^125 I-Bolton Hunter reagent (2000 Ci/mmole) as described by Sankara et al. (J. Biol. Chem. 254: 9349-9351, 1979). Receptor binding was performed according to Innis and Snyder (Proc. Natl. Acad. Sci. 77: 6917-6921, 1980) with the minor modification of adding the additional protease inhibitors, phenylmethane sulfonyl fluoride and o-phenanthroline. The latter two compounds have no effect on the ^125 I-CCK receptor binding assay.
Male Sprague-Dawley rats (200-350 g) were sacrificed by decapitation. The whole pancreas was dissected free of fat tissue and was homogenized in 20 volumes of ice-cold 50 mM, Tris HCl (pH 7.7 at 25° C.) with a Brinkmann Polytron PT 10. The homogenates were centrifuged at 48,000 g for 10 min. Pellets were resuspended in Tris Buffer, centrifuged as above and resuspended in 200 volumes of binding assay buffer (50 mM Tris HCl, pH 7.7 at 25° C., 5 mM dithiothrietol, 0.1 mM bacitracin, 1.2 mM phenylmethane sulfonyl fluoride and 0.5 mM o-phenanthroline). […] All assays were run in duplicate or triplicate. The reaction mixtures were incubated at 37° C. for 30 minutes and centrifuged in a Beckman Microfuge (4 minutes) immediately after adding 1 ml of ice-cold incubation buffer. The supernatant was aspirated and discarded, pellets were counted with a Beckman gamma 5000. For Scatchard analysis (Ann. N.Y. Acad. Sci. 51: 660, 1949), ^125 I-CCK-33 was progressively diluted with increasing concentrations of CCK-33.

Data set [3] deals with CCK-A receptors. The following applies: pancreas, gallbladder, colon; cited from earlier work.
Data set [4] has as its system CCK-B receptors. The following applies: brain; cited from earlier work.
For data set [5] the following is noted: rat, brain synaptosomal fraction; cited from earlier work.

pIC50: −log10 of the molar value. Read-outs that look alike come from different tables or passages of the source.

T1 sequence (H0VZC5 entry or part of it): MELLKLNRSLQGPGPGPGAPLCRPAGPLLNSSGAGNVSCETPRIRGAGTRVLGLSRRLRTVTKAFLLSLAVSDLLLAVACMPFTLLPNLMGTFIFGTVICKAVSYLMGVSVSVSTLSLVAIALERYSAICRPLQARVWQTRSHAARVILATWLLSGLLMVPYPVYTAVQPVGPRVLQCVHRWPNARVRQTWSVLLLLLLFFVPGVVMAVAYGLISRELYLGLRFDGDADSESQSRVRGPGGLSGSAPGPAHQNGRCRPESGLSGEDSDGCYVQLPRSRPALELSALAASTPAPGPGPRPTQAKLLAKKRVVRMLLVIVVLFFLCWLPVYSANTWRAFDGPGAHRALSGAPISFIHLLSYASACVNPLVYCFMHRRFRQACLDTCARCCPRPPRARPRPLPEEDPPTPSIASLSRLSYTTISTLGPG

In the case of `Cc1nnc2n1-c1ccccc1C(c1ccccc1)=NC2NC(=O)Nc1ccc(Cl)cc1` (centres unmarked) [Compound 12, N-(4-Chlorophenyl)-N'-(1-methyl-6-phenyl-4H-[1,2,4]triazolo[4,3-a][1,4]benzodiazepin-4-yl)urea], the pIC50 (usually the IC50 on a negative log10 scale, so that one unit is a factor of ten) is 7.10 in data set [1] and 7.09 in data set [2] (rat pancreas membranes, 125I-CCK-33, 37° C., 30 minutes).

Consider gastrin, for which, in data set [3], the “affinity for CCK-A receptors” value was “lower affinity”.

With `c1cnc2c(c1)ccc1cccnc12` [o-phenanthroline], in data set [2], the “effect on the 125I-CCK receptor binding assay” value is “no effect”.

Regarding CCK-4, the “affinity for CCK-A receptors” value in data set [3] is “lower affinity”. Also, in data set [4], the “affinity for CCK-B receptors” value is listed as “high affinity”.

In the case of `CSCC[C@H](NC(=O)[C@H](Cc1ccc(OS(=O)(=O)O)cc1)NC(=O)[C@@H](N)CC(=O)O)C(=O)NCC(=O)N[C@@H](Cc1c[nH]c2ccccc12)C(=O)N[C@@H](CCSC)C(=O)N[C@@H](CC(=O)O)C(=O)N[C@@H](Cc1ccccc1)C(N)=O` [CCK-8s, H-Asp-Tyr(SO3 H)-Met-Gly-Trp-Met-Asp-Phe-NH2], in data set [3], the “affinity for CCK-A receptors” value is given as “high affinity”. For the same compound, the “affinity for CCK-B receptors” value in data set [4] is reported as “high affinity”. In data set [5], the half-life result was “less than 1 hour”.

For `CSCC[C@H](NC(=O)[C@H](Cc1c[nH]c2ccccc12)NC(=O)CCNC(=O)OC(C)(C)C)C(=O)N[C@@H](CC(=O)O)C(=O)N[C@@H](Cc1ccccc1)C(N)=O` [pentagastrin], the “affinity for CCK-B receptors” value in data set [4] is “high affinity”.

In the case of `O=C(Nc1ccc(Cl)cc1)NC1N=C(c2ccccc2)c2ccccc2-n2cnnc21` (centres unmarked) [Compound 11, N-(4-Chlorophenyl)-N'-(6-phenyl-4H-[1,2,4]triazolo-[4,3-a][1,4]benzodiazepin-4-yl)urea], the pIC50 in data set [1] was 6.32; in data set [2] it was 6.92.

For the compound “CCK-8d: the corresponding desulphated fragment”, the “affinity for CCK-A receptors” value in data set [3] was “lower affinity”.

`O=S(=O)(F)Cc1ccccc1` [phenylmethane sulfonyl fluoride]: the “effect on the 125I-CCK receptor binding assay” value in data set [2] is “no effect”.
